Data on 29 compounds can be found in publication PMC9147274 (Pharmaceuticals, 2022).

Data set [1] can be described thus: Cytotoxicity toward MRC-5, MTT assay. Format: cell-based. To be noted: human, MRC-5 cells, MRC-5 normal cells. The procedure: (§1) DMSO was used as vehicle control. […] All experiments were performed in triplicate. […] Cells were exposed for 48 h.
For orientation: Tetrazolium assays rely on reduction of a dye to a coloured formazan, in cell work by metabolically active cells.

The test system of another data set is HL-60. Put plainly: Cytotoxicity toward HL-60, XTT assay. Format: cell-based, human. To be noted: for IC50: Homo sapiens, HL-60, XTT, 48 h; for SI (HL-60): (IC50 for MRC-5)/(IC50 for HL-60). The protocol:
as §1
(§2) Table S1 The cytotoxicity of triazole-cored derivatives toward various human lung carcinoma cell lines A549, Thai human cholangiocarcinoma cells HuCCA-1, T-cell acute lymphoblastic leukemia MOLT-3, and acute promyelocytic leukemia HL-60. The inhibitory activities were indicated as IC50 in micromolar scale (µM). The calculated selectivity indices (SI) were reported in square brackets.
(§3) Cancer Cell lines, IC50 (µM), [SI]

The next data set has as its system A549. Description: Cytotoxicity toward A549, MTT assay. Format: cell-based, human. The note with it: for IC50: Homo sapiens, A549, MTT, 48 h. The protocol:
as §1, §2, §3

The next data set has as its system HuCCA-1. Description: Cytotoxicity toward HuCCA-1, MTT assay. Format: cell-based, human. The note with it: for IC50: Homo sapiens, HuCC-A1, HuCCA-1, MTT, 48 h. The procedure:
as §1, §2, §3

For another data set, the system named is MOLT-3. Put plainly: Cytotoxicity toward MOLT-3, XTT assay. Format: cell-based, human. The note with it: for IC50: Homo sapiens, MOLT-3, XTT, 48 h; for SI (MOLT-3): (IC50 for MRC-5)/(IC50 for MOLT-3). The protocol: as §1, §2, §3
Another data set relates to HepG2. Put plainly: Cytotoxicity toward HepG2, MTT assay. The note with it: for Selectivity index (SI): IC50 MRC-5 / IC50 HepG2; for IC50: read-out: Cytotoxicity HepG2 IC50, HepG2, MTT; for IC50 / Cytotoxicity HepG2 Cell Viability at 25 µM: 72 h; for Cytotoxicity HepG2 Cell Viability at 25 µM: HepG2, 25 µM, MTT.

The structures appear in SMILES notation.

Protocol for HepG2: DMSO was used as vehicle control. […] All experiments were performed in triplicate. Data were expressed as the IC50 ± SD. […] Cells were exposed for 48 h.

With `COc1ccc(-n2cc(CNC(=O)Nc3ccc(Cl)c(C(F)(F)F)c3)nn2)cc1` [Compound 2s], half-maximal inhibition in data set [1] (IC50 at 48 h) required 21.2 ± 2.51 µM. Besides, in the data set with HL-60, the IC50 was above 100 µM.
In data set [1], `O=C(NCc1cn(-c2ccc(Br)cc2)nn1)Nc1ccc(Cl)c(C(F)(F)F)c1` [Compound 2j] gave an IC50 at 48 h of 60.7 ± 1.88 µM. Besides, the IC50 in the data set with A549 was determined as 33.8 ± 2.29 µM; in the data set with HuCCA-1 it was 10.8 ± 0.36 µM; in the data set with MOLT-3 it was 53.4 ± 24.3 µM; in the data set on HL-60, 76 ± 22.6 µM.
The compound `O=C(NCc1cn(-c2ccc(C(F)(F)F)cc2)nn1)Nc1ccc(Cl)c(C(F)(F)F)c1` [Compound 2y, 1-(4-chloro-3-(trifluoromethyl)phenyl)-3-((1-(4-(trifluoromethyl)phenyl)-1H-1,2,3-triazol-4-yl)methyl)urea] returned a melting point of 199 to 200 °C. For the same compound, the IC50 at 48 h in data set [1] was found to be 58.6 ± 3.51 µM. In the data set on MOLT-3, the “SI (MOLT-3)” value is on record as 3.23 and half-maximal inhibition (IC50) was put at 18.1 ± 0.45 µM. Besides, in the data set with HL-60, the “SI (HL-60)” value is reported as 3.02 and the IC50 came to 19.4 ± 0.5 µM. Moreover, in the data set with HepG2, the “Selectivity index (SI)” value stood at 9.81 and the IC50 came out at 5.97 ± 2.14 µM.
Consider `Cc1ccccc1-n1cc(CNC(=O)Nc2ccc(Cl)c(C(F)(F)F)c2)nn1` [Compound 2t], for which, in data set [1], the IC50 at 48 h is 61.7 ± 3.22 µM. The compound further yielded an IC50 in the data set on HL-60 of 45 ± 4.03 µM.
In the case of `O=C(NCc1cn(-c2ccccc2F)nn1)Nc1ccc(Cl)c(C(F)(F)F)c1` [Compound 2b], in data set [1], the midpoint of inhibition, the IC50 at 48 h, lay at 73.5 ± 9.14 µM. Besides, the IC50 with A549 worked out at 77.3 ± 1.76 µM; with HuCCA-1 it was 69.2 ± 19.2 µM; in the data set with MOLT-3, 25.3 ± 1.38 µM; with HL-60 it was 40.6 ± 4.64 µM.
For the compound `O=C(NCc1cn(-c2ccccc2I)nn1)Nc1ccc(Cl)c(C(F)(F)F)c1` [Compound 2k], the IC50 at 48 h in data set [1] was 49.1 ± 2.95 µM. The compound further gave an IC50 in the data set on HL-60 of 37.4 ± 2.36 µM.
`O=C(NCc1cn(-c2ccc(I)cc2)nn1)Nc1ccc(Cl)c(C(F)(F)F)c1` [Compound 2m] had an IC50 at 48 h in data set [1] of 49.9 ± 6.61 µM. Moreover, the IC50 in the data set on MOLT-3 came out at 29.9 ± 1.51 µM; with HL-60, 49.8 ± 7.19 µM.
As for `O=C(NCc1cn(-c2cccc(O)c2)nn1)Nc1ccc(Cl)c(C(F)(F)F)c1` [Compound 2o], the IC50 in the data set on MOLT-3 came to 28.3 ± 4.51 µM; with HL-60 it was 39.2 ± 2.72 µM.
In turn, `O=C(NCc1cn(-c2cccc(Br)c2)nn1)Nc1ccc(Cl)c(C(F)(F)F)c1` [Compound 2i] had an IC50 at 48 h in data set [1] of 53 ± 3.31 µM. The IC50 with HL-60 worked out at 35.75 ± 0.34 µM.
`O=C(NCc1cn(-c2ccccc2C(F)(F)F)nn1)Nc1ccc(Cl)c(C(F)(F)F)c1` [Compound 2w]: in data set [1], the IC50 at 48 h came to 58.8 ± 0.39 µM. The values for the IC50 in the data set with MOLT-3 and with HL-60 were 30.6 ± 0.8 µM and 34.5 ± 0.73 µM, respectively.
For the compound `O=C(NCc1cn(-c2ccccc2Br)nn1)Nc1ccc(Cl)c(C(F)(F)F)c1` [Compound 2h], in data set [1], half-maximal inhibition (IC50 at 48 h) required 52.9 ± 3.1 µM. This compound also gave an IC50 in the data set with HL-60 of 37.7 ± 3.88 µM.
Turning to `O=C(NCc1cn(-c2ccccc2O)nn1)Nc1ccc(Cl)c(C(F)(F)F)c1` [Compound 2n], the IC50 in the data set on MOLT-3 was found to be 39.4 ± 3.52 µM; in the data set with HL-60, 51.1 ± 1.77 µM.
Compound `CC(=O)Nc1ccc(-n2cc(CNC(=O)Nc3ccc(Cl)c(C(F)(F)F)c3)nn2)cc1` [Compound 2u, N-(4-(4-((3-(4-chloro-3-(trifluoromethyl)phenyl)ureido)methyl)-1H-1,2,3-triazol-1-yl)phenyl)acetamide] registered a melting point of 238 to 239 °C.
The same measure, in the same setting: then `O=C(NCc1cn(-c2ccccc2F)nn1)Nc1ccc(Cl)c(C(F)(F)F)c1` [Compound 2b, 1-(4-chloro-3-(trifluoromethyl)phenyl)-3-((1-(2-fluorophenyl)-1H-1,2,3-triazol-4-yl)methyl)urea], with 168 to 169 °C.
For the compound `Cc1ccc(-n2cc(CNC(=O)Nc3ccc(Cl)c(C(F)(F)F)c3)nn2)cc1` [Compound 2v], in data set [1], half-maximal inhibition (IC50 at 48 h) was put at 99.9 ± 0.9 µM. For the same compound, the IC50 in the data set with MOLT-3 was 91.1 ± 1.66 µM; in the data set on HL-60, above 100 µM.
Regarding `O=C(NCc1cn(-c2cccc(F)c2)nn1)Nc1ccc(Cl)c(C(F)(F)F)c1` [Compound 2c], the IC50 at 48 h in data set [1] is 61.6 ± 3.63 µM. For the same compound, the IC50 is 69.4 ± 2.44 µM with A549, 44.9 ± 3.84 µM in the data set with HuCCA-1, 18.4 ± 0.36 µM in the data set on MOLT-3 and 34.1 ± 11.3 µM in the data set with HL-60.
As to `N#Cc1ccccc1-n1cc(CNC(=O)Nc2ccc(Cl)c(C(F)(F)F)c2)nn1` [Compound 2z, 1-(4-chloro-3-(trifluoromethyl)phenyl)-3-((1-(2-cyanophenyl)-1H-1,2,3-triazol-4-yl)methyl)urea], the melting point lay in the range of 162 to 163 °C. In data set [1], half-maximal inhibition (IC50 at 48 h) was put at 59.7 ± 6.63 µM. In the data set with HL-60, the “SI (HL-60)” value worked out at 1.06 and the IC50 was found to be 56.4 ± 10.9 µM. For the same compound, in the data set on HepG2, the “Cytotoxicity HepG2 Cell Viability at 25 µM” value was 66%.
On to `O=C(NCc1cn(-c2cccc(Cl)c2)nn1)Nc1ccc(Cl)c(C(F)(F)F)c1` [Compound 2f], for which the IC50 at 48 h in data set [1] was 63.8 ± 3.53 µM. Moreover, the midpoint of inhibition with HL-60, the IC50, lay at 37.5 ± 2.23 µM.
As to `O=C(NCc1cn(-c2ccc(Cl)cc2)nn1)Nc1ccc(Cl)c(C(F)(F)F)c1` [Compound 2g], the IC50 at 48 h in data set [1] turned out to be 14.6 ± 4.17 µM. Besides, the IC50 is 83 ± 2.7 µM in the data set on A549, 33.6 ± 1.83 µM in the data set with HuCCA-1, above 100 µM with MOLT-3 and above 100 µM in the data set on HL-60.
`O=C(NCc1cn(-c2ccccc2Cl)nn1)Nc1ccc(Cl)c(C(F)(F)F)c1` [Compound 2e] yielded an IC50 at 48 h in data set [1] of 61.4 ± 3.51 µM. The same compound yielded an IC50 with HL-60 of 52.1 ± 13.9 µM.
In data set [1], `COc1cccc2c1C(=O)c1c(O)c3c(c(O)c1C2=O)C[C@@](O)(C(=O)CO)C[C@@H]3O[C@H]1C[C@H](N)[C@H](O)[C@H](C)O1` [Doxorubicin, reference compound] came in with an IC50 at 48 h of 2.26 µM. Moreover, the “SI (A549)” value in the data set on A549 ((IC50 for MRC-5)/(IC50 for A549)) was 4.81. Also, the IC50 in the data set on A549 turned out to be 0.47 ± 0.02 µM; in the data set with HuCCA-1, 1.21 ± 0.04 µM; in the data set with MOLT-3, 0.01 µM; in the data set on HL-60 it was 0.12 ± 0.02 µM; in the data set with HepG2, 0.59 ± 0.1 µM. The “SI (HuCCA-1)” value with HuCCA-1 ((IC50 for MRC-5)/(IC50 for HuCCA-1)) is recorded as 1.87. In addition, the “SI (MOLT-3)” value with MOLT-3 is 226. The “SI (HL-60)” value in the data set with HL-60 worked out at 18.83. Further, the “Selectivity index (SI)” value in the data set on HepG2 was 3.83.
`COc1ccccc1-n1cc(CNC(=O)Nc2ccc(Cl)c(C(F)(F)F)c2)nn1` [Compound 2q] had a half-inhibitory concentration (IC50) at 48 h in data set [1] of 68 ± 5.14 µM. Besides, the IC50 with HL-60 stood at 42.4 ± 2.18 µM.
In turn, `O=C(NCc1cn(-c2ccc(F)cc2)nn1)Nc1ccc(Cl)c(C(F)(F)F)c1` [Compound 2d] returned an IC50 at 48 h in data set [1] of 59.3 ± 1.96 µM. Moreover, the IC50 in the data set on A549 was 57.4 ± 8.36 µM; in the data set on HuCCA-1 it was 55.4 ± 6.49 µM; with MOLT-3, 20.5 ± 1.23 µM; in the data set with HL-60, 35 ± 9.04 µM.
For `COc1cccc(-n2cc(CNC(=O)Nc3ccc(Cl)c(C(F)(F)F)c3)nn2)c1` [Compound 2r], in data set [1], the 50% inhibitory concentration (IC50) at 48 h was determined as 76.1 ± 9.18 µM. The compound also had an IC50 in the data set on HL-60 of 42.8 ± 1.95 µM.
The compound `O=C(NCc1cn(-c2ccc(O)cc2)nn1)Nc1ccc(Cl)c(C(F)(F)F)c1` [Compound 2p] gave an IC50 at 48 h in data set [1] of 69.6 ± 5.66 µM. Moreover, the IC50 was 85.9 ± 7.24 µM with A549, 87.43 ± 0.79 µM with HuCCA-1, 22.5 ± 1.85 µM with MOLT-3 and 32.9 ± 7.77 µM in the data set with HL-60.
Regarding `O=C(NCc1cn(-c2cccc(I)c2)nn1)Nc1ccc(Cl)c(C(F)(F)F)c1` [Compound 2l], in data set [1], the IC50 at 48 h came to 49.2 ± 2.13 µM. This compound displayed an IC50 with HL-60 of 33.2 ± 0.58 µM.
As to `O=C(NCc1cn(-c2cccc(C(F)(F)F)c2)nn1)Nc1ccc(Cl)c(C(F)(F)F)c1` [Compound 2x, 1-(4-chloro-3-(trifluoromethyl)phenyl)-3-((1-(3-(trifluoromethyl)phenyl)-1H-1,2,3-triazol-4-yl)methyl)urea], the melting point is 152 to 153 °C. For the same compound, inhibition in data set [1] was half-maximal at 63.2 ± 1.57 µM (IC50 at 48 h). In addition, in the data set on MOLT-3, the “SI (MOLT-3)” value is listed as 2.28 and the midpoint of inhibition, the IC50, lay at 27.8 ± 4.56 µM. In addition, in the data set with HL-60, the “SI (HL-60)” value is reported as 2.19 and the IC50 worked out at 28.8 ± 7.46 µM. Moreover, the “Cytotoxicity HepG2 Cell Viability at 25 µM” value in the data set on HepG2 turned out to be 81%.
In turn, `Cc1cccc(-n2cc(CNC(=O)Nc3ccc(Cl)c(C(F)(F)F)c3)nn2)c1` [Compound 2u] came in with an IC50 in the data set with HL-60 above 100 µM.
Compound `O=C(NCc1cn(-c2ccccc2)nn1)Nc1ccc(Cl)c(C(F)(F)F)c1` [Compound 2a] registered an IC50 at 48 h in data set [1] above 100 µM. Also, the IC50 with A549, with HuCCA-1, with MOLT-3 and in the data set on HL-60 was above 100 µM throughout.

The term IC50 denotes the concentration needed to halve the response being measured. The term melting point denotes the temperature, or range, at which the solid turns liquid.
